Experimental data as given in US10702527B2, “Combination therapy of transcription inhibitors and kinase inhibitors” (Dana-Farber Cancer Institute, Inc., priority 2015, dated 2020).
“Also recorded” adds a separate entry of the source.

Key:
[1] = test system: RT112 bladder carcinoma cells (FGFR3-dependent); assay: Colony formation assay in RT112 cells; format: cell-based, human
Source text: Media (and drug) were replaced weekly.

[2] = test system: HER-2 dependent models; details: cited from earlier work
[3] = test system: PC9 cells (EGFR-dependent NSCLC); assay: Colony formation assay in PC9 cells; format: cell-based; details: 4 weeks, compared to THZ1 (FIG. 55B)
[4] = test system: PC9 cells; assay: Apoptosis/cell death analysis (Annexin V/PI flow cytometry) in PC9 cells; format: cell-based; details: 48 hours; erlotinib 1 μM; compared to PC9 cells with control RNA guide
Procedure: 100,000 cells were seeded in 6-well plates, allowed to adhere overnight, and then incubated with media containing vehicle or drug as indicated for 24 or 48 hours. Cell death was quantified using the Alexa Fluor 488 Annexin V/Dead Cell Apoptosis kit for flow cytometry (Invitrogen), according to the manufacturer's protocol. All conditions were assayed in triplicate. Data were acquired using a BD LSRFortessa X-20 (BD Biosciences), and analyzed in FlowJo.

[5] = test system: signaling pathways in PC9 cells; assay: Western blot / immunoblot of signaling pathways in PC9 cells; format: cell-based; details: 24 hours, erlotinib 1 μM, THZ1 100 nM, alone or combined
Procedure: Cells were lysed in RIPA buffer (Roche) containing protease inhibitors (Roche) and Phosphatase Inhibitor Cocktails I and II (CalBioChem). Protein concentrations were determined using a Bradford assay (Bio-Rad). Proteins were separated by SDS gel electrophoresis using NuPAGE 4-12% Bis-Tris gels (Life Technologies) in MOPS buffer. Resolved protein was transferred to nitrocellulose membranes, blocked in 10% milk and probed with primary antibodies recognizing EGFR (2232S), p-EGFR (2234S), FGFR3 (4574S), p-FGFR (3471S), HER2/ERBB2 (2165), p-ERBB2 (2243S), STAT1 (9172), p-STAT1 (9167), STAT3 (4904S), p-STAT3 (9145S), AKT (9272S), p-AKT (4060P), ERK (4695S), p-ERK (4370S), FRA1 (5281S), CDK12 (11973) (all from Cell Signaling Technology), CDK7 (sc-723, Santa Cruz), actin (A5441, Sigma-Aldrich) and vinculin (V9131, Sigma-Aldrich) in 5% milk or 3% bovine serum albumin as recommended by the manufacturer. After incubation with the appropriate secondary antibody (Pierce anti-mouse IgG/IgM (31444, Thermo Scientific) and anti-rabbit IgG (31460, Thermo Scientific)), blots were imaged on film.
Western blots were used to characterize the signaling pathways in selected cell lines. The assays were performed at 24 hours under the following conditions: untreated, treated with 1 μM erlotinib, treated with 100 nM THZ1, or treated with a combination of erlotinib and THZ1, in PC9 and RT112 cells. These doses were also used in the colony formation assays and the RNAseq and ChIPseq experiments. […] However, it could be blocking the activation of downstream STAT3 targets. […] FGFR is known to be a bypass mechanism in PC9, but this was not seen with THZ1 treatment or with the combination treatment. […] This is unexpected, given that THZ1 should block CDK7-mediated RNAPII phosphorylation. This may be due to the dose or the time point assayed.

[6] = test system: IL-6; assay: IL-6 in PC9 cell culture supernatants (Luminex cytokine assay, ELISA); format: cell-based; details: PC9 cells; erlotinib 1 μM, THZ1 100 nM; 24 and 72 hours
Procedure: A Luminex Multiplex Custom Cytokine assay was used to assay cytokines in RT112 and PC9 cell culture supernatants treated with vehicle, 1 μM BGJ398 or erlotinib respectively, 100 nM THZ1, or THZ1 in combination with BGJ398 or erlotinib, at 24 and 72 hours. Cytokines assayed for were: CCL2/MCP-1, CCL5/RANTES, CXLC5, IL-1 alpha and beta, IL-2, IL-4, IL-5, IL-6, IL-8, IL-10, IL-17a, GM-CSF, TNF-alpha, VEGF, INF-gamma. IL-6 was also assayed in cell culture supernatants using the Quantikine IL-6 ELISA kit (D6050, R&D Systems) as per the manufacturer's protocol.

[7] = test system: gene expression in PC9 cells; assay: RNA-Seq gene expression in PC9 cells
Procedure: RNA was isolated from untreated RT112 cells and RT112 cells treated with 1 μM BGJ398, 100 nM THZ1, or combination treatment with THZ1 plus BGJ398, and similarly, untreated PC9 cells and PC9 cells treated with 1 μM erlotinib, 100 nM THZ1, or THZ1 plus erlotinib. Both cell lines were harvested at two time-points: following one day or seven days of treatment. Cell number was determined and total RNA was isolated using the RNeasy micro kit (Qiagen). Ambion® ERCC RNA Spike-In Mix (Life technology) was added to total RNA. cDNA libraries were prepared using the NEBNext® Ultra™ RNA Library Prep Kit for Illumina (New England Biolabs) according to the manufacturer's instructions. Library integrity was assessed on an Agilent 2100 Bioanalyzer (Agilent). Sequencing was performed on the Hiseq 2000 platform (Illumina) to a minimum depth of 30 million reads per sample.
QC-passed reads were aligned to the human reference genome (hg19) using PRADA.^46 Transcript per million (TPM) values were determined using RSEM.^47 TPM values were normalized with the voom transformation.^48 Expression changes for each gene in treated cells compared to untreated controls was determined using the limma package^49 as log 2-transformed fold change and a multiple-testing adjusted p-value. Heatmap visualization was performed using R. Log 2-transformed fold changes were not scaled and were colored on a blue-red scale.
Differentially expressed genes (defined as log 2-fold change value greater than 1.5 or less than −1.5, and p-value less than 0.01) were input into Ingenuity Pathway Analysis (www.ingenuity.com), to identify a) enriched pathways, 2) upstream regulators, andd 3) downstream effectors. […] We considered an activation z-score of greater than [2] to be activated, and less than [−2] to be inhibited. Gene ontology term (GO-term) enrichment analysis was performed using the Database for Annotation, Visualization and Integrated Discovery (DAVID) v6.7 (david.abcc.ncifcrf.gov/).

[8] = test system: H3K27Ac enhancer signal in PC9 cells; assay: H3K27Ac ChIP-Seq in PC9 cells; format: cell-based, human; details: seven days of treatment, vs DMSO
Procedure: RT112 and PC9 cells treated for seven days with vehicle, 1 μM BGJ398 and erlotinib (respectively), 100 nM THZ1, or BGJ398/erlotinib in combination with THZ1. H3K27Ac ChIP-Seq was performed using Abcam antibody (cat # AB4729, lot # GR183922-1) as previously described,^8 with minor modifications (cells were crosslinked for 20 min, Dynal magnetic beads (Sigma) were bound with 10 μg of the indicated antibody).
All ChIP-Seq data sets were aligned using bowtie 1.0.1 to build NCBI36/hg19 of the human genome with -p 4—best -k 2 -m 2—sam -1 40. Wiggle files for gene tracks were created using Macs 1.4.2 with options -w -S -space=50 to count reads in 50 bp bins.
Regions enriched in H3K27Ac were identified using SICER^51 with corresponding input DNA control, and parameters -t 1 (max 1 read per position), -w 200 (window size 200), -i 150 (fragment size), -g 200 (gap size 200; 1 window), -t 0.74 (interrogable genome fraction), -e 200 (e-value), -p 1e-9 (significance p value cutoff). […]
Density of H3K27Ac ChIP-Seq signal (FIG. 51F) was calculated using bamToGFF (github.com/BradnerLab/pipeline). Islands of H3K27Ac identified in RT112 BGJ398-treated cells or PC9 erlotinib-treated cells were treated as one bin (-m 1), reads were extended to be 200 bp (default) and the reads-per-million (-r) normalized density (-d) of reads was calculated therein.

Structure (SMILES)	enhancement of sensitivity to BGJ398 (colony formation) ([1]; 4 weeks, compared to THZ1 (FIG. 55D))	colony formation, transcription inhibitor alone or in combination with BGJ398 ([1]; one week, 24-well plate (FIG. 35))	sensitivity to lapatinib [2]	enhancement of sensitivity to erlotinib (colony formation) [3]	sensitivity to erlotinib (cell death) of CDK7 and CDK12-deficient PC9 cells [4]	FGFR activation [5]	p-STAT3 (STAT3 phosphorylation/activation) [5]	IL-6 levels in cell culture supernatants [6]	gene expression (transcriptional programs) by RNAseq ([7]; erlotinib 1 μM, THZ1 100 nM, one or seven days)	gene expression of the top 200 up-regulated genes with erlotinib treatment ([7]; log2-normalized FPKM, two-tailed t-test)	H3K27Ac ChIP-Seq signal at enhancers [8]
Cc1sc2c(c1C)C(c1ccc(Cl)cc1)=N[C@@H](CC(=O)OC(C)(C)C)c1nnc(C)n1-2 [JQ1]	did enhance sensitivity to BGJ398 in RT112, although less so than THZ1	modest results, even in combination	enhance sensitivity to lapatinib	did not enhance sensitivity to erlotinib	–	–	–	–	–	–	–
C#Cc1cccc(Nc2ncnc3cc(OCCOC)c(OCCOC)cc23)c1 [erlotinib]	–	–	–	–	enhanced sensitivity to erlotinib	is activated; also recorded: activation of FGFR was also observed	increases	significantly increased	transcriptionally distinct form the parental population; also recorded: up-regulated the expression of genes involved in pro-survival programs	significant increase in gene expression	significant increase in H3K27Ac signal
